Measured values taken from PMC6972607, “L‐Fucose prevention of renal ischaemia/reperfusion injury in Mice” (The FASEB Journal, 2019).

Molecular target: T1, collectin-11 (CL-11, CL-K1) (Homo sapiens, UniProt Q9BWP8)
T1 construct: gene COLEC11; recombinant homo-oligomer generated by expression of the CL-11 cDNA (isoform a)
Assay: competition ELISA, rCL-11 binding to immobilised yeast invertase

T1 sequence (Q9BWP8 26-271): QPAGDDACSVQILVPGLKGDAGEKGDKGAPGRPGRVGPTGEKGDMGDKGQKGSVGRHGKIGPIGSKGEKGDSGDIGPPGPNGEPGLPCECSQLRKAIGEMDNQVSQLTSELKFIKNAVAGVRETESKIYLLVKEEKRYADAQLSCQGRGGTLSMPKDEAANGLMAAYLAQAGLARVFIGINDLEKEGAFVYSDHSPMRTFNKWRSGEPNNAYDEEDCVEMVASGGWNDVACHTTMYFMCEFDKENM

IC50	Compound
11.8 mM	OC[C@H]1OC(O)[C@@H](O)[C@@H](O)[C@@H]1O (stereo partly drawn) [D-mannose]
12.1 mM	C[C@@H]1OC(O)[C@@H](O)[C@H](O)[C@@H]1O (stereo partly drawn) [L-fucose]
